One assay concerns writhing syndrome. Description: Analgesic action (acetic acid writhing syndrome). The assay is classed as in vivo, ddY strain male mice. Conditions: oral, mouse; in terms of the amount of analgesic antipyretic ingredient. In general terms: Writhing tests count abdominal constrictions after an irritant is injected.
For assay [1], the system named is body temperature (pyrogenic area, yeast). Description: Antipyretic action (yeast-induced fever). Format: in vivo, Wistar strain male rats. As to conditions: oral, rat, up to 6 h; in terms of the amount of the antipyretic analgesic ingredient.
In a further assay the test system is pain threshold. Kind of assay: Analgesic action (pressure stimulation of tail base, rise ratio of pain threshold). Format: in vivo, Wistar strain male rats. Here is the method:
Test medication A consisted of a suspension of Acasia used as the control. The other test medications contained the ingredients listed in the Table below, and were suspended in Acasia solution. These test medications were administered orally at a volume of 1 ml/100 g B.W. A pressure stimulation device (Analgesy-meter Model TK-201, Unicom) was used to apply pressure to the base of the tails of the animals. A pain threshold of […] was selected for the experimented animal based on parameters of reaction to temporary pain consisting of writhing, fleeing and squealing. The pain threshold was measured prior to oral administration of each test medication as well as at 30 and 120 minutes after administration. The ratio of the rise in the pain threshold at 30 and 120 minutes after administration was calculated from comparison with that before administration.

Structures are written as SMILES.

For orientation: ED50 means the dose that gives a 50% effect, or the effect in half of the subjects. On to `CC(C)Cc1ccc(C(C)C(=O)O)cc1` (stereo not shown) [Ibuprofen, 2-(4-isobutylphenyl)propionic acid], for which the results for the 50% effective dose (ED50) (in the assay with writhing syndrome; in assay [1]) were 137 mg/kg and 20.4 mg/kg, respectively. Also, the “Pain threshold at 30 minutes (in words)” value in the assay on pain threshold (30 minutes after administration) is “a remarkable rise was observed”. For the same compound, the “Pain threshold at 120 minutes (in words)” value in the assay on pain threshold (120 minutes after administration) was “essentially equal to that before administration”.

Source of the values: patent US5409709A (priority 1991, dated 1995).
